From patent US10874108B2, “Anti-microbial compositions” (5D HEALTH PROTECTION GROUP LTD, priority 2016, dated 2020)
Several values for one entry are separate records, joined by “and”; a condition that tells them apart may be missing. Equal values may be shown once.

Experiments:
[1] = Displacement of metals from EDTA complexes by physiological saline; type: physicochemical
Method: Adding saline to the suspension of Ag4(EDTA), the suspension quickly precipitated a solid (AgCl). The precipitate was filtered off, washed with deionized water 4 times; and then dried in a vacuum oven at 50° C. in a dark flask to avoid exposure to direct light.
The displacement experiment described above was repeated for compounds 1-4 to provide the percent of the displacement of silver, copper, zinc from the EDTA complexes by physiological saline.

[2] = Elution from collagen films; type: physicochemical; conditions: for Elution in saline (ppm) EDTA / Elution in saline (ppm) Zinc / Elution in water (ppm) EDTA / Elution in saline (ppm) Silver / Elution in water (ppm) Silver / Elution in water (ppm) Zinc: collagen film; for Overall zinc eluted out from collagen films: 5 days; for In total EDTA eluted out from collagen films: over 5 days; for In total silver eluted out from collagen films: over the 5 days
Method: The EDTA compounds 1-4 were added to collagen films and then investigated for elution of these complexes. The collagen film was prepared from a solution of oxidized bovine atelocollagen type I, glycerol and EDTA compounds 1-4. 1.8 ml 10% glycerol solution was added into 20 ml oxidized bovine atelocollagen type I solution. 5 ml EDTA complex were added into the solution with vigorous stirring, and the mixture was adjusted to pH=7.0 by dropwise addition of 5% NaOH. The final solution was adjusted to 30 ml by ultrapure water and was cast into PVC mould. The solution was dried in a fume hood overnight. All the collagen films, impregnated with the EDTA complexes were immersed in water, saline or simulated wound fluid.

[3] = test system: S. aureus 24-hour CDC biofilms; experiment: Colonies after exposure of 24-hour CDC biofilms to EDTA compounds; type: cell-based
[4] = test system: P. aeruginosa 24-hour CDC biofilms; experiment: as above; type: cell-based
[5] = test system: P. aeruginosa biofilms; experiment: CDC bioreactor biofilm LR/kill, EDTA compounds at 100 ppm silver; type: cell-based; conditions: 100 ppm of silver, exposed 24 hours
Method: (§1) Microbial cultures were exposed to compounds for 24 hours. Compounds were diluted according to 100 ppm of silver. Biofilms were formed using the CDC bioreactor. Samples were performed in triplicate.

[6] = test system: S. aureus biofilms; experiment: as above; type: cell-based; conditions: 100 ppm of silver, exposed 24 hours
Method: as §1

[7] = test system: P. aeruginosa biofilms; experiment: MBEC plate 48-hour biofilm, liquid EDTA-Ag2-Zn compound; type: cell-based
From the text: Biofilms were formed using the MBEC plate method. Log reduction (LR) values are expressed with standard error. N.D (not determined) is stated when no colonies were detected upon enumeration.

[8] = test system: E. faecalis ATCC 29212 biofilm; experiment: MBEC model (ASTM E2799), liquid formulas; type: cell-based; conditions: treated 24 hours
Method: (§2) The MBEC model (ASTM E2799) was used to assess the anti-biofilm efficacy of the liquid formulas. Biofilms were grown on polystyrene pegs in the MBEC model for either 24 or 48 hours before treatment. Using the liquid form of the EDTA complexes 24- and 48-hour biofilms were tested (Table 20).
(§3) 24- and 48-hour biofilms were formed using MBEC plate method and treated for 24 hours. Technical replicates n=3. Log reduction (LR) values show±standard error (SE) of LR value.

[9] = test system: P. aeruginosa NCTC 10662 biofilm; experiment: MBEC model (ASTM E2799), liquid formulas; type: cell-based; conditions: treated 24 hours
Method: as §2, §3

[10] = test system: S. aureus ATCC 29213 biofilm; experiment: MBEC model (ASTM E2799), liquid formulas; type: cell-based; conditions: treated 24 hours
Method: as §2, §3

[11] = test system: S. aureus MRSA BAA-43 biofilm; experiment: MBEC model (ASTM E2799), liquid formulas; type: cell-based; conditions: treated 24 hours
Method: as §2, §3

[12] = test system: S. epidermidis ATCC 35984 biofilm; experiment: MBEC model (ASTM E2799), liquid formulas; type: cell-based; conditions: treated 24 hours
Method: as §2, §3

[13] = test system: S. aureus wound biofilm; experiment: Wound biofilm model (Labskin), histological examination; type: cell-based; conditions: 100 ppm; day 6; vs untreated S. aureus wound biofilm
[14] = test system: interleukin-6 (IL-6); experiment: IL-6 ELISA, wounded biofilm-containing Labskin; type: cell-based; conditions: 100 ppm; vs S. aureus wound biofilm control
From the text: Enzyme-linked immunosorbent assay (ELISA) was used to assess the secreted levels of the inflammatory cytokine interleukin-6 (IL-6) according to previously published methods (Foster, A. M., Baliwag, J., Chen, C. S., Guzman, A. M., Stoll, S. W., Gudjonsson, J. E., Ward, N. L. & Johnston, A. 2014, IL-36 promotes myeloid cell infiltration, activation, and inflammatory activity in skin, The Journal of Immunology, 192, 6053-6061). […] The IL-6 levels were reduced further when compared to the S. aureus wound biofilm control.
ELISA was used to assess the levels of IL-6 in conditioned cell culture medium. Culture medium was changed at day 4, which accounts for the reduction in IL-6. […] Tests were performed in duplicate. Error bars indicate standard deviation.

[15] = test system: cells; experiment: Direct cytotoxicity, Neutral Red Uptake assay
[16] = day 1, listed as EDTA compound 4

Structure (SMILES): O=C([O-])CN(CCN(CC(=O)[O-])CC(=O)[O-])CC(=O)[O-].[Ag+].[Ag+].[Zn+2] [Compound 4, Ag2ZnEDTA]
- Displacement (%) Silver [1]: 80.77 ± 6.45%
- Displacement (%) Zinc [1]: 38.86 ± 9.01 %
- Elution in saline (ppm) EDTA ([2]; day 1): 9.75 ± 1.31 ppm
- Elution in saline (ppm) Zinc ([2]; day 1): 5.65 ± 0.06 ppm
- Elution in water (ppm) EDTA ([2]; day 1): 9.25 ± 0.90 ppm
- Elution in saline (ppm) Silver [2, 16]: 20.34±1.42 ppm
- Elution in water (ppm) Silver [2, 16]: 19.08±0.92 ppm
- Elution in water (ppm) Zinc [2, 16]: 9.86±0.39 ppm
- Elution in saline (ppm) EDTA ([2]; day 2): 0.47 ± 0.35 ppm
- Elution in saline (ppm) Silver ([2]; day 2): 14.49 ± 2.63 ppm
- Elution in saline (ppm) Zinc ([2]; day 2): 6.26 ± 0.67 ppm
- Elution in water (ppm) EDTA ([2]; day 2): 0.96 ± 0.64 ppm
- Elution in water (ppm) Silver ([2]; day 2): 12.61 ± 1.04 ppm
- Elution in water (ppm) Zinc ([2]; day 2): 9.60 ± 0.33 ppm
- Elution in saline (ppm) EDTA ([2]; day 3): 0.40 ± 0.08 ppm
- Elution in saline (ppm) Silver ([2]; day 3): 15.23 ± 2.41 ppm
- Elution in saline (ppm) Zinc ([2]; day 3): 6.44 ± 0.60 ppm
- Elution in water (ppm) EDTA ([2]; day 3): 1.53 ± 1.08 ppm
- Elution in water (ppm) Silver ([2]; day 3): 10.64 ± 1.19 ppm
- Elution in water (ppm) Zinc ([2]; day 3): 8.08 ± 0.70 ppm
- Elution in saline (ppm) EDTA ([2]; day 4): −0.13 ± 0.90 ppm
- Elution in saline (ppm) Silver ([2]; day 4): 12.93 ± 2.10 ppm
- Elution in saline (ppm) Zinc ([2]; day 4): 5.58 ± 0.33 ppm
- Elution in water (ppm) EDTA ([2]; day 4): 0.24 ± 0.28 ppm
- Elution in water (ppm) Silver ([2]; day 4): 9.56 ± 0.79 ppm
- Elution in water (ppm) Zinc ([2]; day 4): 6.24 ± 0.40 ppm
- Elution in saline (ppm) EDTA ([2]; day 5): −0.07 ± 0.93 ppm
- Elution in saline (ppm) Silver ([2]; day 5): 13.30 ± 2.14 ppm
- Elution in saline (ppm) Zinc ([2]; day 5): 5.18 ± 0.15 ppm
- Elution in water (ppm) EDTA ([2]; day 5): 1.17 ± 1.31 ppm
- Elution in water (ppm) Silver ([2]; day 5): 10.35 ± 0.73 ppm
- Elution in water (ppm) Zinc ([2]; day 5): 6.53 ± 0.23 ppm
- Overall zinc eluted out from collagen films ([2]; in saline): 27.36%
- In total EDTA eluted out from collagen films ([2]; in saline): 13.44%
- In total silver eluted out from collagen films ([2]; in saline): 66.22%
- Overall zinc eluted out from collagen films ([2]; in water): 37.89%
- In total EDTA eluted out from collagen films ([2]; in water): 16.95%
- In total silver eluted out from collagen films ([2]; in water): 54.03%
- Number of colonies detected [3]: 0 Cfu/ml
- Number of colonies detected [4]: 0 Cfu/ml
- Kill % [5]: 99.95%
- LR [5]: 3.34 ± 0.11
- Kill % [6]: 99.98%
- LR [6]: 3.73 ± 0.18
- % Kill ([7]; 62.5 ppm, treatment 1 hours): 100%
- % Kill ([7]; 62.5 ppm, treatment 24 hours): 100%
- % Kill ([7]; 125 ppm, treatment 1 hours): 100%
- % Kill ([7]; 125 ppm, treatment 24 hours): 100%
- % Kill ([7]; 250 ppm, treatment 1 hours): 100%
- % Kill ([7]; 250 ppm, treatment 24 hours): 100%
- % Kill ([7]; 500 ppm, treatment 1 hours): 100%
- % Kill ([7]; 500 ppm, treatment 24 hours): 100%
- % Kill ([7]; 1000 ppm, treatment 1 hours): 100%
- % Kill ([7]; 1000 ppm, treatment 24 hours): 100%
- Kill % ([8]; 50 ppm, 24-Hour Biofilm): 100%
- LR ([8]; 50 ppm, 24-Hour Biofilm): 6.35
- Kill % ([8]; 50 ppm, 48-Hour Biofilm): 100%
- LR ([8]; 50 ppm, 48-Hour Biofilm): 6.40
- Kill % ([8]; 100 ppm, 24-Hour Biofilm): 100%
- LR ([8]; 100 ppm, 24-Hour Biofilm): 6.35
- Kill % ([8]; 100 ppm, 48-Hour Biofilm): 100%
- LR ([8]; 100 ppm, 48-Hour Biofilm): 6.40
- Kill % ([9]; 50 ppm, 24-Hour Biofilm): 100%
- LR ([9]; 50 ppm, 24-Hour Biofilm): 7.44
- Kill % ([9]; 50 ppm, 48-Hour Biofilm): 100%
- LR ([9]; 50 ppm, 48-Hour Biofilm): 8.44
- Kill % ([9]; 100 ppm, 24-Hour Biofilm): 100%
- LR ([9]; 100 ppm, 24-Hour Biofilm): 7.44
- Kill % ([9]; 100 ppm, 48-Hour Biofilm): 100%
- LR ([9]; 100 ppm, 48-Hour Biofilm): 8.44
- Kill % ([10]; 50 ppm, 24-Hour Biofilm): 100%
- LR ([10]; 50 ppm, 24-Hour Biofilm): 6.44
- Kill % ([10]; 50 ppm, 48-Hour Biofilm): 100%
- LR ([10]; 50 ppm, 48-Hour Biofilm): 6.50
- Kill % ([10]; 100 ppm, 24-Hour Biofilm): 100%
- LR ([10]; 100 ppm, 24-Hour Biofilm): 6.44
- Kill % ([10]; 100 ppm, 48-Hour Biofilm): 100%
- LR ([10]; 100 ppm, 48-Hour Biofilm): 6.50
- Kill % ([11]; 50 ppm, 24-Hour Biofilm): 100%
- LR ([11]; 50 ppm, 24-Hour Biofilm): 5.40
- Kill % ([11]; 50 ppm, 48-Hour Biofilm): 100%
- LR ([11]; 50 ppm, 48-Hour Biofilm): 6.43
- Kill % ([11]; 100 ppm, 24-Hour Biofilm): 100%
- LR ([11]; 100 ppm, 24-Hour Biofilm): 5.40
- Kill % ([11]; 100 ppm, 48-Hour Biofilm): 100%
- LR ([11]; 100 ppm, 48-Hour Biofilm): 6.43
- Kill % ([12]; 50 ppm, 24-Hour Biofilm): 100%
- LR ([12]; 50 ppm, 24-Hour Biofilm): 6.09
- Kill % ([12]; 50 ppm, 48-Hour Biofilm): 100%
- LR ([12]; 50 ppm, 48-Hour Biofilm): 6.41
- Kill % ([12]; 100 ppm, 24-Hour Biofilm): 100%
- LR ([12]; 100 ppm, 24-Hour Biofilm): 6.09
- Kill % ([12]; 100 ppm, 48-Hour Biofilm): 100%
- LR ([12]; 100 ppm, 48-Hour Biofilm): 6.41
- amount of microorganisms within the tissues (histology) [13]: reduced amount of microorganisms within the tissues
- secreted IL-6 (inflammatory marker) [14]: significant reduction
- Interpretation ([15]; 25 ppm): Cytotoxic (if the percentage viability is less than 70% of the untreated control, then the substance is considered cytotoxic)
- Percentage of Control/Percentage Viability (%) ([15]; 25 ppm): 62.67 ± 20.39%
- Interpretation ([15]; 50 ppm): Non cytotoxic (if the percentage viability is less than 70% of the untreated control, then the substance is considered cytotoxic)
- Percentage of Control/Percentage Viability (%) ([15]; 50 ppm): 72.93% and 72.93 ± 12.90%
- Interpretation ([15]; 100 ppm): Cytotoxic (if the percentage viability is less than 70% of the untreated control, then the substance is considered cytotoxic)
- Percentage of Control/Percentage Viability (%) ([15]; 100 ppm): 56.41 ± 1.83%
